Publication PMC9223397 (International Journal of Molecular Sciences, 2022)

Experiments:
[1] = test system: SMI-32-positive MNs in spinal cord organotypic cultures; test: Spinal cord organotypic cultures (SCOC) under chronic excitotoxicity (THA); format: cell-based, Sprague–Dawley rats; settings: THA 100 µM, 28 DIV; tested at 0.03, 0.3, 3, 30 µM
Description: SCOCs from lumbar sections of 8-day-old Sprague–Dawley rats were prepared as previously described [39]. Briefly, the spinal cord was collected and cut into 350 μm thick transverse sections with a McIlwain Tissue Chopper. Four lumbar sections were transferred onto Millicell-CM nets (0.4 μm, PICM03050, Millipore) in medium (50% (v/v) minimal essential medium (MEM, M5775, Sigma), 2 mM glutamine, 25 mM HEPES, 25% (v/v) Hank’s Balanced Salt Solution (HBSS^−/−;14175, Gibco; UK) supplemented with 25.6 mg/mL glucose, and 25% (v/v) heat-inactivated horse serum (26050-088, Gibco; New Zealand), pH = 7.2). Cultures were maintained at 37 °C in a 5% CO2 humidified cabin and left to stabilize. After 7 days in vitro (DIV), DL-threo-β-hydroxyaspartic acid (THA; 100 μM: H2775, Sigma Aldrich, St. Louis, MI, USA) was added to induce chronic excitotoxicity [28]. […] In vitro experiments were performed in three independent cultures, with at least 12 different SCOCs for each experimental condition.
Slices were maintained for 28 DIV and then fixed with 4% PFA. […] MN survival was assessed by counting all SMI-32-positive neurons in each spinal cord using the Cell Counter plugin of ImageJ software.

[2] = test system: spinal MNs after L4-L5 rhizotomy; test: MN survival after L4-L5 rhizotomy (cresyl violet MN counts); format: in vivo, female mice (B6SJL)
Description: (§1) Surgeries were performed on three-month-old mice under anesthesia with ketamine-xylazine (100–10 mg/kg i.p.) as previously described. Briefly, the L4-L5 spinal roots were exposed by a small laminectomy on the right side. Afterwards, roots were cut at the exit from the intervertebral foramina, and the root stumps were separated. Mice were cared for until recovery in a warm environment. Analgesia was provided with buprenorphine (0.1 mg/kg) for the next 48 h post-surgery.
(§2) The compounds were dissolved in 0.5% hydroxypropyl-methylcellulose (HPMC; H7509, Sigma-Aldrich) in distilled water and were administered by intraperitoneal (i.p.) route twice daily (bid) in a volume of 10 mL/kg. Administrations were given from 30 min after rhizotomy surgery until 42 days post-injury (dpi), the end of the study; in the SOD1^G93A study, treatments were given from 8 to 16 weeks of age (see Figure 6).
At the end of follow-up (42 dpi for rhizotomy and 16 weeks of age for ALS mice; Figure 6), the animals were deeply anesthetized and transcardially perfused with 4% PFA in PBS. The lumbar spinal cord and the TA muscle were harvested and cryopreserved in 30% sucrose solution in PB. The spinal cords were serially cut in 20 µm thick transverse sections with a cryostat (Leica, Mannheim, Germany). For MN counting, L4-L5 spinal cord sections separated 100 µm were stained for 3 h with an acidified solution of 3.1 mM cresyl violet. MNs were identified by their localization in the lateral ventral horn of the spinal cord and were counted following strict size and morphological criteria: only MNs with a diameter larger than 20 µm, polygonal shape, and prominent nucleoli were counted.

[3] = test system: microglia and astrocytes in ventral horn after rhizotomy; test: Glial reactivity after L4-L5 rhizotomy (Iba1, GFAP immunolabeling); format: in vivo, female mice (B6SJL); settings: 5 mg/kg bid i.p., 42 dpi; for GFAP integrated density ± SEM (astroglial reactivity): untreated 19 × 10^4; for Iba1 integrated density ± SEM (microglial reactivity): untreated 26 × 10^4
Description: as §1, §2
(§3) For glial cells immunofluorescence, other lumbar spinal cord sections were blocked with 10% normal donkey serum and incubated overnight with primary antibodies rabbit anti-Iba1 (1:500; 019–19741, Wako) and rat anti-GFAP (1:500; 13-0300, Invitrogen) to label microglia and astroglia, respectively. After several washes, sections were incubated with secondary antibodies Alexa Fluor 488-donkey anti-rat (1:500; A-21208, Invitrogen) or Alexa Fluor 594 donkey anti-rabbit (1:500; A21207, Invitrogen). Finally, sides were mounted with Fluoromount-G. To quantify glial cell reactivity, images of the ventral horn were acquired with an epifluorescence microscope (Nikon Eclipse Ni, Japan) using the same conditions for each analyzed marker. After defining a threshold for background correction, the integrated density of GFAP or Iba1 labeling was measured using ImageJ software.

SOD1^G93A mice = test: Rotarod test in SOD1G93A mice; format: in vivo, SOD1^G93A male mice; settings: 5 mg/kg i.p.; at 15 weeks of age
Description: as §2
A rotarod test was performed to evaluate motor coordination and strength. The time that each animal remained on the rotating rod at a speed of 14 rpm was measured for five trials per mouse, and the longest time until falling was recorded; 180 s was chosen as the cut-off time. The test was performed weekly from 8 to 16 weeks of age in SOD1^G93A and WT mice, and disease onset was determined as the first week when each mouse was unable to keep walking for 180 s on the rod.

[4] = test system: NMJs of hindlimb muscle in SOD1^G93A mice; test: Neuromuscular junction innervation in SOD1G93A mice; format: in vivo, SOD1^G93A male mice; settings: 5 mg/kg i.p.; 16 weeks of age
Description: as §2
For neuromuscular junction (NMJ) labeling, 50 µm thick longitudinal sections of TA muscle were serially cut. Sections were blocked with 5% normal donkey serum and incubated with primary antibodies rabbit anti-synaptophysin (1:500; Ab32127, Abcam, Cambridge, UK) and chicken anti-neurofilament 200 (NF200, 1:1000; AB5539, Millipore, Burlington, MS, USA) 48 h at 4 °C. After washes, sections were incubated overnight with secondary antibody Alexa Fluor 594-donkey anti-rabbit and anti-chicken (1:200; A11042-A21207, Invitrogen, USA) and Alexa 488 conjugated α-bungarotoxin (1:500; B13422, Life Technologies, Carlsbad, CA USA). Confocal images were captured (LSM 700 Axio Observer, Carl Zeiss, Jena, Germany, 40xOil/z0.5), and the maximum projection images generated from 1.3 µm z projections. The proportion of innervated NMJs was calculated by classifying each endplate as occupied (when presynaptic terminals overlie the endplate) or vacant (no presynaptic label in contact with the endplate). At least 60 endplates were analyzed per muscle.

[5] = test system: microglia and astrocytes in ventral horn of SOD1^G93A mice; test: Glial reactivity in SOD1G93A mice (Iba1, GFAP); format: in vivo, SOD1^G93A male mice; settings: 5 mg/kg i.p.; 16 weeks of age
Description: as §2, §3

[6] = Body weight in SOD1G93A mice; format: in vivo, SOD1^G93A male mice; settings: 5 mg/kg i.p., 8 to 16 weeks of age
Description: as §2

[7] = 0.5 mg/kg bid i.p., 42 dpi, not significant
[8] = 5 mg/kg/bid i.p. 6 weeks, 42 days after injury, untreated injured 6.8 ± 0.3

Structure (SMILES)	Number of SMI-32-positive MNs vs THA condition [1]	Number of spinal MNs ± SEM, ipsilateral ventral horn [2, 7]	Number of spinal MNs ± SEM, ipsilateral ventral horn [2, 8]	GFAP integrated density ± SEM (astroglial reactivity) [3]	Iba1 integrated density ± SEM (microglial reactivity) [3]	Rotarod performance vs vehicle (SOD1^G93A mice)	Proportion of innervated endplates (NMJ) vs vehicle [4]	Astrocyte activation (GFAP) [5]	Microglial activation (Iba1) [5]	Body weight vs vehicle group [6]
C[C@@H]1OC2(CCN(Cc3ccc(F)cc3)CC2)CN(C)C1=O [EST79232]	significantly more SMI-32-positive neurons at three concentrations tested	7.6 ± 0.9	8.6 ± 0.6	4 × 10^4 ± 0.4 × 10^4	13 × 10^4 ± 2 × 10^4	significant improvement	tendency to preserve NMJ innervation, although differences did not reach statistical significance	significant decrease in astrocyte activation	did not reduce microglial activation	did not cause differences in body weight
CCN1CC2(CCN(Cc3ccc(C#N)c(F)c3)CC2)O[C@@H](C)C1=O [EST79376]	significantly preserved MNs	7.4 ± 0.7	8.7 ± 0.5	15 × 10^4 ± 2.7 × 10^4	25 × 10^4 ± 4 × 10^4		tendency to preserve NMJ innervation, although differences did not reach statistical significance	significant decrease in astrocyte activation	did not reduce microglial activation	
